The source of these data is patent US6369032B1, “Method for treating allergies” (Ortho-McNeil Pharmaceutical, Inc., priority 2000, dated 2002).

The subject of experiment [1] is HDM allergen-specific CD4 T cells. The experiment in a line: Ex vivo human T cell proliferation assay, PBMC of allergic donors cultured with house dust mite extracts (3H-thymidine incorporation). In kind it is cell-based. The note with it: PBMC from HDM-allergic donors, 7 days culture, titrated doses of LHVS; all four donors tested. The method, then:
(§1) Reagents. Glycerinated crude allergen extracts of house dust mites (Dermataphagoides pteronyssinus, Dermataphagoides farinae) and ragweed [Ambrosia trifida (giant), Ambrosia artemisiifolia (short)] were purchased from Hollister-Stier Laboratories (Minneapolis, Minn.). Concanavalin A (ConA) was purchased from Calbiochem (La Jolla, Calif.).
(§2) Donors. All allergic donors were prescreened for their specific allergies using RAST tests. The HLA class II haplotypes of these donors were determined using PCR.
(§3) Cell culture. Human peripheral blood mononuclear cells (PBMC) were purified from blood of allergic donors using Ficoll-Hypaque gradient followed by washes with phosphate buffered saline (PBS). PBMC were cultured in triplicate or duplicate at 0.5-1.0×10^6 cells/well with titrated doses of allergen extracts, in the presence or absence of a known cathepsin S inhibitor, LHVS (morpholinurea-leucine-homo-phenylalanine-vinylsulfonephenyl) (Palmer et al. (1995), J. Med. Chem. 38:3193 and Riese et al. (1996), Immunity 4:357). Serial diluted stock solutions of LHVS were first made in 100% DMSO and then diluted 1:15 in 40% Hydroxypropynyl cyclodextrin (HPCD). Three microliters of LHVS in HPCD was added into PBMC cultures (200 μL/well). […] Eighteen hours later, cells were harvested using a Filtermate Harvester (Packard) and counted for ^3H-TdR incorporation on Topcount (Packard). […]
In general terms: Uptake of a labelled nucleoside into DNA is a usual measure of proliferation.

The subject of experiment [2] is ragweed allergen-specific CD4 T cells. The experiment in a line: Ex vivo human T cell proliferation assay, PBMC of allergic donors cultured with ragweed extracts (3H-thymidine incorporation). Type of experiment: cell-based. The note with it: PBMC from ragweed-allergic donors, 7 days culture, titrated doses of LHVS; two donors tested. The method, then: as §1, §2, §3

Experiment [3] relates to T cells stimulated with ConA, a pan-T cell mitogen. The experiment in a line: T cell proliferative responses induced by ConA (specificity control). In kind it is cell-based, human. The note with it: PBMC from allergic donors.
Source text: as §1
Cell culture. Human peripheral blood mononuclear cells (PBMC) were purified from blood of allergic donors using Ficoll-Hypaque gradient followed by washes with phosphate buffered saline (PBS). PBMC were cultured in triplicate or duplicate at 0.5-1.0×10^6 cells/well with titrated doses of allergen extracts, in the presence or absence of a known cathepsin S inhibitor, LHVS (morpholinurea-leucine-homo-phenylalanine-vinylsulfonephenyl) (Palmer et al. (1995), J. Med. Chem. 38:3193 and Riese et al. (1996), Immunity 4:357). Serial diluted stock solutions of LHVS were first made in 100% DMSO and then diluted 1:15 in 40% Hydroxypropynyl cyclodextrin (HPCD). Three microliters of LHVS in HPCD was added into PBMC cultures (200 μL/well). After 6 days of culture, 1 μCi/well of ^3H-thymidine (TdR) was added. Eighteen hours later, cells were harvested using a Filtermate Harvester (Packard) and counted for ^3H-TdR incorporation on Topcount (Packard). […]

The subject of experiment [4] is cathepsin S (degradation of invariant chain Ii). The experiment in a line: Monitoring cathepsin S inhibition in human blood: p10Ii fragment of invariant chain in PBMC by Western blot. Type of experiment: cell-based. The settings on record: PBMC from human blood, incubation for 24 h, SDS-PAGE / Western blot. The method, then:
The effect of in vivo administration of cathepsin S inhibitors, in a clinical trial setting, can be monitored by measuring accumulation of an intermediate degradation product of invariant chain (Ii), i.e. the p10Ii fragment, in blood of dosed subjects. After administration of a cathepsin inhibitor for a certain period of time, for example, 0.01 to 50 mg/kg/day to result in a blood concentration of preferably 1 nM-10 μM for 16-30 h, blood is drawn and white blood cells are purified, e.g. either by lysis of red blood cells or by a Ficoll-Hypaque gradient centrifugation. Whole cell lysates of WBC are then made and analyzed by either a Western blot assay or an ELISA assay. For the Western blot assay, cell lysates are first resolved on SDS-PAGE gels. After transferring to nitrocellulose membranes, Ii and its intermediate degradation products, including the p10Ii, can be detected using a mouse mAb against Ii, e.g. Pin1.1, or rabbit polyclonal antibodies or a mouse monoclonal antibody specific for the p10Ii fragment or against the entire p10Ii fragment. For ELISA assay, a pair of antibodies against Ii, including Pin1.1, and a rabbit polyclonal antibody against C-terminal of p10Ii, can be used. The same assay can also be applied to monitor the effect of cathepsin S inhibitors in vivo in animal studies, for example in monkeys, dogs, pigs, rabbits, guinea pigs, and rodents. […]

In the case of `CC(C)C[C@H](NC(=O)N1CCOCC1)C(=O)N[C@H](/C=C/S(=O)(=O)c1ccccc1)CCc1ccccc1` [LHVS, 4-morpholinecarboxamide, N-[(1S)-3-methyl-1-[[[(1S,2E)-1-(2-phenylethyl)-3-(phenylsulfonyl)-2-propenyl]amino]carbonyl]butyl]-], the “T cell proliferation induced by house dust mite extracts (Der p, Der f)” value in experiment [1] is reported as “strongly inhibited”. Besides, the “T cell proliferation induced by ragweed extracts (short and giant)” value in experiment [2] is listed as “strongly inhibited”. Moreover, in experiment [3], the “T cell proliferative responses induced by ConA” value is reported as “not affected”. Further, in experiment [4], the “p10Ii fragment (block in the degradation of Ii)” value is recorded as “the p10Ii fragment was seen”.
